Patent publication US5925731A, “Endothelin antagonist peptides” (Takeda Chemical Industries, Ltd., priority 1995, dated 1999)
*1 amine or outer side, *2 acyl side, *3 side chain or, on linkers, in order; H or OH if unused. Where a SMILES comes first, the peptide text is derived from it. [ ]: non-standard residue; d: D form. The star is where a group is joined. Piperazinyl(4-(2-MeOPh)) = COc1ccccc1N1CCN(*)CC1; Piperazinyl(4-Ph) = c1ccc(N2CCN(*)CC2)cc1; X3 = COc1ccc(C)cc1N1CCN(*)CC1; X2 = COc1cccc(N2CCN(*)CC2)c1; dNle = CCCC[C@@H](N)C(=O)O; X4 = Fc1ccccc1N1CCN(*)CC1; Nle = CCCC[C@H](N)C(=O)O; CO = O=C([*:1])[*:2]; X1 = C1CCCN(*)CC1; Moc = COC(=O)*; For = O=C*

Key:
[1] = molecular target: T1, human endothelin receptor ETA (Homo sapiens, UniProt P25101); test: Radioiodinated endothelin-1 binding to membrane fraction of CHO cells expressing human endothelin receptor ETA; details: radioactive-iodine-labeled endothelin-1, 25° C., one hour
T1 construct: expressed in transfected cells; host or cells: CHO cells (membrane fraction)
T1 sequence (P25101 21-427): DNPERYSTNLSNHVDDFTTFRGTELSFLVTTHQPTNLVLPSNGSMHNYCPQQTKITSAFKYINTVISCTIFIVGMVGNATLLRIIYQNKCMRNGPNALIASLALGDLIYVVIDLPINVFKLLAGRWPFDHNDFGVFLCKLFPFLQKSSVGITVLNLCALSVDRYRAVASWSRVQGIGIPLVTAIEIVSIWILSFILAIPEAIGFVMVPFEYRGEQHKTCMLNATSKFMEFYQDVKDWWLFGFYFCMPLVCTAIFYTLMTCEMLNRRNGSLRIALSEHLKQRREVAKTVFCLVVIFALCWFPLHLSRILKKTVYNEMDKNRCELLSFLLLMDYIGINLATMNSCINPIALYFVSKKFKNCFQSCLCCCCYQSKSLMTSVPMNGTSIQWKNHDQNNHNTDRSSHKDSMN
Method: (§1) The membrane fraction of CHO cells on which human endothelin receptor (ETA or ETB) was expressed was diluted to 0.15 mg/ml with an assaying buffer and dispensed to assaying tubes at 100 μl per tube. To this membrane fraction suspension were added 2 μl of a solution of endothelin-1 labeled with radioactive iodine (5 nM) and 3 μl of a 50% dimethyl sulfoxide of the test compound, followed by incubation at 25° C. for one hour. The membrane fraction suspension was diluted with 900 μl of an ice-cooled assaying buffer and centrifuged at 12,000×G for 10 minutes to separate supernatant and precipitate. The precipitate contained cell membranes and endothelin receptors embedded therein. The receptor-bound endothelin, labeled with radioactive iodine, was also recovered in the precipitate. The radioactive iodine in this precipitate was counted, using a gamma ray counter, to determine the amount of radioactive-iodine-labeled endothelin-1 bound to the endothelin receptors. The results of the quantitative determination were shown in the respective IC50 (nm) values in the following Table 2.

[2] = molecular target: T2, human endothelin receptor ETB (Homo sapiens, UniProt P24530); test: Radioiodinated endothelin-1 binding to membrane fraction of CHO cells expressing human endothelin receptor ETB; details: radioactive-iodine-labeled endothelin-1, 25° C., one hour
T2 construct: expressed in transfected cells; host or cells: CHO cells (membrane fraction)
T2 sequence (P24530 27-442): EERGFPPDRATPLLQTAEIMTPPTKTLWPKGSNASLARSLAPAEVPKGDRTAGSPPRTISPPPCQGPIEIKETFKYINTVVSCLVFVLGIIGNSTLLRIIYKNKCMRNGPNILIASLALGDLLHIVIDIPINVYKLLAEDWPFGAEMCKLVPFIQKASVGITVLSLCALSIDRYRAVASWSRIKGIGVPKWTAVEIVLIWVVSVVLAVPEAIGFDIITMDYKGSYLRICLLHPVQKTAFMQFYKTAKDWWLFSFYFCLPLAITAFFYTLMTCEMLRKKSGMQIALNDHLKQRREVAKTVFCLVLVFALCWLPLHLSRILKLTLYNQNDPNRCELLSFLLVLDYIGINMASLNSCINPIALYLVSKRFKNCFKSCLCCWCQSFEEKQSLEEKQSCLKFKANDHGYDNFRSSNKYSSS
Method: as §1

SMILES | IC50 [1] [nM] | IC50 [2] [nM]
CCCC[C@H](NC(=O)N1CCCCCC1)C(=O)N[C@H](Cc1cn(C(=O)OC)c2ccccc12)C(=O)N[C@H](CCCC)C(=O)N[C@H](CC(=O)N1CCN(c2ccccc2)CC1)C(=O)O [W. Ex. 10, Hexamethyleniminocarbonyl-Nle-D-Trp(COOMe)-D-Nle-D-Asp(Php)] ({X1-CO}-[Nle][dW](Moc)[dNle][dD](Piperazinyl(4-Ph))-OH) | 34 | 75
CCCC[C@@H](NC(=O)[C@@H](Cc1cn(C(=O)OC)c2ccccc12)NC(=O)[C@@H](NC(=O)N1CCCCCC1)[C@@H](C)CC)C(=O)N[C@H](CC(=O)N1CCN(c2ccccc2)CC1)C(=O)O [W. Ex. 9, Hexamethyleniminocarbonyl-Ile-D-Trp(COOMe)-D-Nle-D-Asp(Php)] ({X1-CO}-I[dW](Moc)[dNle][dD](Piperazinyl(4-Ph))-OH) | 21 | 15
CCCC[C@@H](NC(=O)[C@@H](Cc1cn(C(=O)OC)c2ccccc12)NC(=O)[C@H](CC(C)C)NC(=O)N1CCCCCC1)C(=O)N[C@H](CC(=O)N1CCN(c2ccccc2F)CC1)C(=O)O [W. Ex. 8, Hexamethyleniminocarbonyl-Leu-D-Trp(COOMe)-D-Nle-D-Asp (2FPhp)] ({X1-CO}-L[dW](Moc)[dNle][dD](X4)-OH) | 18 | 29
CCCC[C@@H](NC(=O)[C@@H](Cc1cn(C=O)c2ccccc12)NC(=O)[C@H](CC(C)C)NC(=O)N1CCCCCC1)C(=O)N[C@H](CC(=O)N1CCN(c2ccccc2)CC1)C(=O)O [W. Ex. 1, Hexamethyleniminocarbonyl-Leu-D-Trp(CHO)-D-Nle-D-Asp(Php)] ({X1-CO}-L[dW](For)[dNle][dD](Piperazinyl(4-Ph))-OH) | 1.8 | 130
CCCC[C@@H](NC(=O)[C@@H](Cc1cn(C(=O)OC)c2ccccc12)NC(=O)[C@H](CC(C)C)NC(=O)N1CCCCCC1)C(=O)N[C@H](CC(=O)N1CCN(c2ccccc2OC)CC1)C(=O)O [W. Ex. 5, Hexamethyleniminocarbonyl-Leu-D-Trp(COOMe)-D-Nle-D-Asp (2MeOPhp)] ({X1-CO}-L[dW](Moc)[dNle][dD](Piperazinyl(4-(2-MeOPh)))-OH) | 7.1 | 7.9
CCCC[C@@H](NC(=O)[C@@H](Cc1cn(C(=O)OC)c2ccccc12)NC(=O)[C@H](CC(C)C)NC(=O)N1CCCCCC1)C(=O)N[C@H](CCC(=O)O)C(=O)N1CCN(c2ccccc2)CC1 [W. Ex. 4, Hexamethyleniminocarbonyl-Leu-D-Trp(COOMe)-D-Nle-D-Glu-Php] ({X1-CO}-L[dW](Moc)[dNle][dE]-{Piperazinyl(4-Ph)}) | 23 | 23
CCCC[C@@H](NC(=O)[C@@H](Cc1cn(C(=O)OC)c2ccccc12)NC(=O)[C@H](CC(C)C)NC(=O)N1CCCCCC1)C(=O)N[C@@H](CC(=O)N1CCN(c2ccccc2)CC1)C(=O)O [W. Ex. 3, Hexamethyleniminocarbonyl-Leu-D-Trp(COOMe)-D-Nle-Asp (Php)] ({X1-CO}-L[dW](Moc)[dNle]D(Piperazinyl(4-Ph))-OH) | 45 | 34
CCCC[C@@H](NC(=O)[C@@H](Cc1cn(C(=O)OC)c2ccccc12)NC(=O)[C@H](CC(C)C)NC(=O)N1CCCCCC1)C(=O)N[C@H](CC(=O)N1CCN(c2cc(C)ccc2OC)CC1)C(=O)O [W. Ex. 7, Hexamethyleniminocarbonyl-Leu-D-Trp(COOMe)-D-Nle-D-Asp(2MeO-5MePhp)] ({X1-CO}-L[dW](Moc)[dNle][dD](X3)-OH) | 49 | 110
CCCC[C@@H](NC(=O)[C@@H](Cc1cn(C(=O)OC)c2ccccc12)NC(=O)[C@H](CC(C)C)NC(=O)N1CCCCCC1)C(=O)N[C@H](CC(=O)N1CCN(c2cccc(OC)c2)CC1)C(=O)O [W. Ex. 6, Hexamethyleniminocarbonyl-Leu-D-Trp(COOMe)-D-Nle-D-Asp (3MeOPhp)] ({X1-CO}-L[dW](Moc)[dNle][dD](X2)-OH) | 28 | 29
CCCC[C@@H](NC(=O)[C@@H](Cc1cn(C(=O)OC)c2ccccc12)NC(=O)[C@H](CC(C)C)NC(=O)N1CCCCCC1)C(=O)N[C@H](CC(=O)N1CCN(c2ccccc2)CC1)C(=O)O [W. Ex. 2, Hexamethyleniminocarbonyl-Leu-D-Trp(COOMe)-D-Nle-D-Asp(Php)] ({X1-CO}-L[dW](Moc)[dNle][dD](Piperazinyl(4-Ph))-OH) | 11 | 18
